In this series the test system is CCRIS mutagenicity, Ames/micronucleus/aberration tests. Put plainly: CCRIS mutagenicity studies.
Where [1] appears, read: Test System: AMES SALMONELLA TYPHIMURIUM, Strain/Indicator: TA98, Metabolic Activation: NONE, Method: STANDARD PLATE.
Setting [2] is: Test System: AMES SALMONELLA TYPHIMURIUM, Strain/Indicator: TA100, Metabolic Activation: NONE, Method: STANDARD PLATE.
[3] abbreviates: Test System: AMES SALMONELLA TYPHIMURIUM, Strain/Indicator: TA102, Metabolic Activation: NONE, Method: STANDARD PLATE.
The mark [4] stands for this setting: Test System: AMES SALMONELLA TYPHIMURIUM, Strain/Indicator: TA1537, Metabolic Activation: NONE, Method: STANDARD PLATE.
Setting [5] is: Test System: AMES SALMONELLA TYPHIMURIUM, Strain/Indicator: TA98, Metabolic Activation: NONE, Method: PREINCUBATION
Where [6] appears, read: Test System: AMES SALMONELLA TYPHIMURIUM, Strain/Indicator: TA100, Metabolic Activation: NONE, Method: PREINCUBATION

Molecules are shown by their SMILES. Calls of active or inactive are those of the source. No rule for the calls is given here. *1 amine or outer side, *2 acyl side, *3 side chain or, on linkers, in order; H or OH if unused. Where a SMILES comes first, the peptide text is derived from it. Bridges are numbered along the chain shown (N, C = ends). Roman numbers before positions name the chains, in order. [ ]: non-standard residue; d: D form. Actinocin(9to1) = Cc1c2oc3c(C)ccc(C(=O)[*:1])c3nc-2c(C(=O)[*:2])c(N)c1=O; NMeV = CN[C@H](C(=O)O)C(C)C; Sar = CNCC(=O)O

As to `ClCCBr`, the mutagenic call runs as follows: (End Point: IN VITRO CHROMOSOMAL ABERRATIONS, Test System: CHL CELLS, Metabolic Activation: RAT, LIVER, S-9, SODIUM PHENOBARBITAL AND 5,6-BENZOFLAVONE) “active; positive (structural changes)”; (Test System: AMES SALMONELLA TYPHIMURIUM, Strain/Indicator: TA1530, Metabolic Activation: NONE, Method: SPOT) “active; positive”; (Test System: AMES SALMONELLA TYPHIMURIUM, Strain/Indicator: TA1535, Metabolic Activation: NONE, Method: SPOT) “active; positive”.

Turning to `c1ccc2c(c1)-c1c(ccc3ccccc13)[C@H]1N[C@@H]21`, the mutagenic call (Test System: AMES SALMONELLA TYPHIMURIUM, Strain/Indicator: TA98, Metabolic Activation: NONE, Method: PREINCUBATION (KCL-CONTAINING MEDIUM)) is “active; positive”; the mutagenic call (Test System: AMES SALMONELLA TYPHIMURIUM, Strain/Indicator: TA98, Metabolic Activation: NONE, Method: PREINCUBATION (KCL-FREE MEDIUM)) was “active; positive”; the mutagenic call (Test System: AMES SALMONELLA TYPHIMURIUM, Strain/Indicator: TA100, Metabolic Activation: NONE, Method: PREINCUBATION (KCL-CONTAINING MEDIUM)) was “active; positive”; the mutagenic call (Test System: AMES SALMONELLA TYPHIMURIUM, Strain/Indicator: TA100, Metabolic Activation: NONE, Method: PREINCUBATION (KCL-FREE MEDIUM)) is “active; positive”.

For `Cc1c2oc3c(C)ccc(C(=O)N[C@@H]4C(=O)N[C@H](C(C)C)C(=O)N5CCC[C@H]5C(=O)N(C)CC(=O)N(C)[C@@H](C(C)C)C(=O)O[C@@H]4C)c3nc-2c(C(=O)N[C@@H]2C(=O)N[C@H](C(C)C)C(=O)N3CCC[C@H]3C(=O)N(C)CC(=O)N(C)[C@@H](C(C)C)C(=O)O[C@@H]2C)c(N)c1=O` (I: T[dV]P[Sar][NMeV] / II: T[dV]P[Sar][NMeV]; ester I:1-I:C, II:1-II:C; linker I:N-II:N via Actinocin(9to1)), the mutagenic call runs as follows: (End Point: IN VITRO MICRONUCLEUS, Test System: CHO CELLS, Metabolic Activation: RAT, LIVER, S-9, AROCLOR 1254) “active; positive”; (End Point: IN VITRO MICRONUCLEUS, Test System: V79 CELLS, Metabolic Activation: NONE) “active; positive”; under setting [1], “inactive; negative”; under setting [2], “inactive; negative”; under setting [3], “inactive; negative”; under setting [4], “inactive; negative”. The mutagenic call is “inactive; negative” (Test System: E. COLI, Strain/Indicator: WP2 (HCR), Metabolic Activation: NONE, Method: STANDARD PLATE) and “active; positive” (Test System: MOUSE LYMPHOMA, Strain/Indicator: L5178Y (TK+/TK-), Metabolic Activation: NONE, Method: SUSPENSION/PLATE).

`CCOc1ccc2c(c1)C(C)=CC(C)(C)N2`: the mutagenic call under setting [1] is “inactive; negative”; the mutagenic call (Test System: AMES SALMONELLA TYPHIMURIUM, Strain/Indicator: TA98, Metabolic Activation: S-9, Method: STANDARD PLATE) was “inactive; negative”; the mutagenic call under setting [2] was “inactive; negative”; the mutagenic call (Test System: AMES SALMONELLA TYPHIMURIUM, Strain/Indicator: TA100, Metabolic Activation: S-9, Method: STANDARD PLATE) was “inactive; negative”.

With `O[C@H]1c2ccccc2-c2cc3ccc4ccccc4c3cc2[C@@H]1O`, the mutagenic call (Test System: AMES SALMONELLA TYPHIMURIUM, Strain/Indicator: TA100, Metabolic Activation: RAT, LIVER, S-9, AROCLOR 1254, Method: STANDARD PLATE) was “active; positive”.

For `NC(=O)c1ccccc1C(N)=O`, the mutagenic call by setting is: (Test System: AMES SALMONELLA TYPHIMURIUM, Strain/Indicator: TA98, Metabolic Activation: HAMSTER, LIVER, S-9, AROCLOR 1254 (10%), Method: PREINCUBATION) “inactive; negative”; under setting [5], “inactive; negative”; (Test System: AMES SALMONELLA TYPHIMURIUM, Strain/Indicator: TA98, Metabolic Activation: RAT, LIVER, S-9, AROCLOR 1254 (10%), Method: PREINCUBATION) “inactive; negative”; (Test System: AMES SALMONELLA TYPHIMURIUM, Strain/Indicator: TA100, Metabolic Activation: HAMSTER, LIVER, S-9, AROCLOR 1254 (10%), Method: PREINCUBATION) “inactive; negative”; under setting [6], “inactive; negative”; (Test System: AMES SALMONELLA TYPHIMURIUM, Strain/Indicator: TA100, Metabolic Activation: RAT, LIVER, S-9, AROCLOR 1254 (10%), Method: PREINCUBATION) “inactive; negative”. For the same molecule, the mutagenic call (Test System: AMES SALMONELLA TYPHIMURIUM, Strain/Indicator: TA1535, Metabolic Activation: HAMSTER, LIVER, S-9, AROCLOR 1254 (10%), Method: PREINCUBATION) is “inactive; negative”; the mutagenic call (Test System: AMES SALMONELLA TYPHIMURIUM, Strain/Indicator: TA1535, Metabolic Activation: NONE, Method: PREINCUBATION) was “inactive; negative”; the mutagenic call (Test System: AMES SALMONELLA TYPHIMURIUM, Strain/Indicator: TA1535, Metabolic Activation: RAT, LIVER, S-9, AROCLOR 1254 (10%), Method: PREINCUBATION) was “inactive; negative”; the mutagenic call (Test System: AMES SALMONELLA TYPHIMURIUM, Strain/Indicator: TA1537, Metabolic Activation: HAMSTER, LIVER, S-9, AROCLOR 1254 (10%), Method: PREINCUBATION) was “inactive; negative”; the mutagenic call (Test System: AMES SALMONELLA TYPHIMURIUM, Strain/Indicator: TA1537, Metabolic Activation: NONE, Method: PREINCUBATION) was “inactive; negative”; the mutagenic call (Test System: AMES SALMONELLA TYPHIMURIUM, Strain/Indicator: TA1537, Metabolic Activation: RAT, LIVER, S-9, AROCLOR 1254 (10%), Method: PREINCUBATION) is “inactive; negative”.

Take `CCC1C(C)=NN=C(c2ccc(OC)c(OC)c2)c2cc(OC)c(OC)cc21` (stereo unspecified): the mutagenic call by setting is: (Test System: AMES SALMONELLA TYPHIMURIUM, Strain/Indicator: TA97, Metabolic Activation: NONE, Method: STANDARD PLATE) “inactive; negative”; (Test System: AMES SALMONELLA TYPHIMURIUM, Strain/Indicator: TA97, Metabolic Activation: RAT LIVER S-9, AROCLOR 1254, Method: STANDARD PLATE) “inactive; negative”; under setting [1], “inactive; negative”; (Test System: AMES SALMONELLA TYPHIMURIUM, Strain/Indicator: TA98, Metabolic Activation: RAT LIVER S-9, AROCLOR 1254, Method: STANDARD PLATE) “inactive; negative”; under setting [2], “inactive; negative”; (Test System: AMES SALMONELLA TYPHIMURIUM, Strain/Indicator: TA100, Metabolic Activation: RAT LIVER S-9, AROCLOR 1254, Method: STANDARD PLATE) “inactive; negative”. The mutagenic call is “inactive; negative” under setting [3]; “inactive; negative” (Test System: AMES SALMONELLA TYPHIMURIUM, Strain/Indicator: TA102, Metabolic Activation: RAT LIVER S-9, AROCLOR 1254, Method: STANDARD PLATE); “inactive; negative” under setting [4]; “inactive; negative” (Test System: AMES SALMONELLA TYPHIMURIUM, Strain/Indicator: TA1537, Metabolic Activation: RAT LIVER S-9, AROCLOR 1254, Method: STANDARD PLATE).

For `Nc1ccc(Cc2cc(O)c(N)c(Cl)c2)cc1Cl`, the mutagenic call was “inactive; negative” under setting [5] and “inactive; negative” under setting [6].

With `COc1cccc(NC(=O)c2csc([N+](=O)[O-])c2)c1`, the mutagenic call runs as follows: under setting [1], “active; positive”; under setting [2], “active; positive”.

(Values after PubChem BioAssay AID1259407 (Chemical Carcinogenesis Research Information System (CCRIS), 2018).)
